The assay has as its system Detroit 562 cells. Description: In vitro killing assay of ADC on Detroit562 cells (CCK-8). It is filed as cell-based. The conditions noted are these: Detroit 562, 5 days, 3-fold dilutions from 300 nM, CCK-8, FIG. 19. On the procedure:
Experimental Example 4: In Vitro Killing Assay of ADC on Detroit562 Cells
Detroit 562 cells (purchased from Nan Jing cobioer biosciences Co., Ltd.) were cultured so that a cell density reached to 80%. The cells were collected, plated in a 96-well plate, and the cell density was adjusted to 2-5×10^4/ml. Each well was plated with 100 μL of cells, and the ADC molecules were serially diluted 3 times with an initial concentration of 300 nM. After the dilution was completed, the ADC molecules were added to the cell culture medium and cultured for 5 days, during which the apoptosis of the cells was observed regularly. After 5 days, 15 μL of the CCK-8 kit stock solution was added to the 96-well plate and reacted in an incubator of 37° C. for 0.5-2 h. An absorbance at 450 nm was measured, and cell survival curves were drawn based on OD (optical density) readings and ADC dilution gradients.
Human IgG-DXD prepared in Comparative Example 4, Human IgG-LP1 prepared in Comparative Example 5, Human IgG-LP2 prepared in Comparative Example 7, Hu1H2-2-LP1 prepared in Example 6, Hu1H2-2-LP2 prepared in Example 8, and Hu1H2-2-DXD prepared in Comparative Example 9 were selected as ADC molecules. Wherein Human IgG was used as the isotype control of Hu1H2-2 antibody, and DXD was used as positive drug.

The values that follow come from US20260166169A1, “ANTIBODY-DRUG CONJUGATE, PREPARATION METHOD AND USE THEREOF” (priority 2023, published 2026).

Molecules are shown by their SMILES.

As to `CC[C@@]1(O)C(=O)OCc2c1cc1n(c2=O)Cc2c-1nc1cc(F)c(C)c3c1c2[C@@H](NC(=O)OCc1ccc(NC(=O)CNC(=O)[C@H](Cc2ccccc2)NC(=O)CNC(=O)CNC(=O)CCCCCN2C(=O)C=CC2=O)cc1CN(C)C(=O)CN(C)C(=O)CN(C)C(=O)CN(C)C(=O)CN(C)C(=O)CN(C)C(=O)CN(C)C(=O)CN(C)C(=O)CN(C)C(=O)CN(C)C(=O)CN(C)C(C)=O)CC3` [LP-2], the “in vitro killing effect (cell survival curve)” value is given as “more excellent killing effects in vitro on Detriot562”.
